Reference: US11365174B2 (priority 2016, dated 2022)
Entries after “also recorded” stand apart in the source; their conditions may differ. Read-outs that look alike come from different tables or passages of the source.

Test system: Influenza A virus strain A/Puerto Rico/8/1934 H1N1 (PR8; amantadine-resistant)
Type: cell-based
Conditions: for potency of antiviral activity for the PR8 strain compared to amantadine or to other compounds of the class: comparison within figure; for antiviral activity for the PR8 strain (NA activity as read-out for viral protein synthesis/replication): L929 cells, 18-20 hours, fluorescence normalized to DMSO; for antiviral activity for the PR8 strain (NA activity as read-out for viral protein synthesis/replication) / selective activity against PR8 strain in first screen of docking hits: half-log dilutions; for selective activity against PR8 strain in first screen of docking hits: 1-10 uM, alongside DMSO and amantadine, normalized to DMSO

COc1ccccc1CNS(=O)(=O)c1c(C)cc([N+](=O)[O-])cc1C [JDB-0120]
potency of antiviral activity for the PR8 strain compared to amantadine or to other compounds of the class: the most potent inhibitors of NA activity and PR8 virus replication; also recorded: the greatest activity for small molecules; also recorded: the greatest biological activity in the sulfonamide series

Cc1cc([N+](=O)[O-])cc(C)c1S(=O)(=O)NCc1ccccc1Cl [JDB-0121]
potency of antiviral activity for the PR8 strain compared to amantadine or to other compounds of the class: the most potent inhibitors of NA activity and PR8 virus replication; also recorded: the greatest activity for small molecules; also recorded: the greatest biological activity in the sulfonamide series

NC12CC3CC(CC(C3)C1)C2 [amantadine, reference compound]
antiviral activity for the PR8 strain (NA activity as read-out for viral protein synthesis/replication): moderately inhibited PR8 replication at high enough concentrations
antiviral activity for the PR8 strain (NA activity as read-out for viral protein synthesis/replication) (listed as Amantadine): moderately inhibit the replication of the PR8 strain

COc1ccc(C2OCC3(CO)C(C)C=C(C)C2C3C)cc1 (stereo not drawn) [analog 2, [8-(4-methoxyphenyl)-2,4,9-trimethyl-7-oxabicyclo[3.3.1]non-2-en-5-yl]methanol]
antiviral activity for the PR8 strain (NA activity as read-out for viral protein synthesis/replication): antiviral activity for the PR8 strain
potency of antiviral activity for the PR8 strain compared to amantadine or to other compounds of the class: more potent antiviral activity

CC1=CCC2CC1C(c1ccc(O)cc1)OC2(C)C (stereo not drawn) [analog 4, 4-(2,2,6-trimethyl-3-oxabicyclo[3.3.1]non-6-en-4-yl)phenol]
antiviral activity for the PR8 strain (NA activity as read-out for viral protein synthesis/replication): antiviral activity for the PR8 strain
potency of antiviral activity for the PR8 strain compared to amantadine or to other compounds of the class: the most potent; also recorded: more potent antiviral activity

COc1cc(C2OCC3(CO)C(C)C=C(C)C2C3C)ccc1O (stereo not drawn) [analog 5, 4-[5-(hydroxymethyl)-2,4,9-trimethyl-7-oxabicyclo[3.3.1]non-2-en-8-yl]-2-methoxyphenol]
antiviral activity for the PR8 strain (NA activity as read-out for viral protein synthesis/replication): antiviral activity for the PR8 strain
potency of antiviral activity for the PR8 strain compared to amantadine or to other compounds of the class: more potent antiviral activity

Cc1cccc(CNS(=O)(=O)c2c(C)cc(C)cc2C)c1 [analog 7, 2,4,6-trimethyl-N-[(3-methylphenyl)methyl]benzenesulfonamide]
antiviral activity for the PR8 strain (NA activity as read-out for viral protein synthesis/replication): potent inhibitors of NA activity and PR8 virus replication; also recorded: antiviral activity for the PR8 strain
potency of antiviral activity for the PR8 strain compared to amantadine or to other compounds of the class: more potent antiviral activity; also recorded: more potent than amantadine

Cc1cc(C)c(S(=O)(=O)NCc2ccccc2Cl)c(C)c1 [analog 11, N-[(2-chlorophenyl)methyl]-2,4,6 trimethylbenzenesulfonamide]
antiviral activity for the PR8 strain (NA activity as read-out for viral protein synthesis/replication): potent inhibitors of NA activity and PR8 virus replication; also recorded: antiviral activity for the PR8 strain
potency of antiviral activity for the PR8 strain compared to amantadine or to other compounds of the class: the most potent

CC12CC3CC(C)(C1)CC(C(=O)Nc1ccc([N+](=O)[O-])cc1)(C3)C2 [analog 18, 3,5-dimethyl-N-(4-nitrophenyl)adamantane-1-carboxamide]
antiviral activity for the PR8 strain (NA activity as read-out for viral protein synthesis/replication): antiviral activity for the PR8 strain
potency of antiviral activity for the PR8 strain compared to amantadine or to other compounds of the class: the most potent

Cc1cc([N+](=O)[O-])ccc1NC(=O)CC12CC3CC(CC(C3)C1)C2 [analog 21, 2-(1-adamantyl)-N-(2-methyl-4-nitrophenyl)acetamide]
antiviral activity for the PR8 strain (NA activity as read-out for viral protein synthesis/replication): antiviral activity for the PR8 strain

O=[N+]([O-])c1ccc(C23CC4CC(CC(C4)C2)C3)cc1 [analog 23, 1-(4-nitrophenyl)adamantane]
antiviral activity for the PR8 strain (NA activity as read-out for viral protein synthesis/replication): antiviral activity for the PR8 strain

COc1ccccc1CNS(=O)(=O)c1c(C)cc(C)cc1C [analog 31, N-[(2-methoxyphenyl)methyl]-2,4,6 trimethylbenzenesulfonamide]
antiviral activity for the PR8 strain (NA activity as read-out for viral protein synthesis/replication): potent inhibitors of NA activity and PR8 virus replication; also recorded: antiviral activity for the PR8 strain
potency of antiviral activity for the PR8 strain compared to amantadine or to other compounds of the class: the greatest activity

Cc1cc(C)c(S(=O)(=O)NCc2ccccc2)c(C)c1 [compound 3, N-benzyl-2,4,6-trimethylbenzenesulfonamide]
antiviral activity for the PR8 strain (NA activity as read-out for viral protein synthesis/replication): antiviral activity for the PR8 strain
potency of antiviral activity for the PR8 strain compared to amantadine or to other compounds of the class: more potent than amantadine
selective activity against PR8 strain in first screen of docking hits: selective activity against PR8 strain

O=C(CC12CC3CC(CC(C3)C1)C2)Nc1ccc([N+](=O)[O-])cc1 [compound 16, 2-(1-adamantyl)-N-(4-nitrophenyl)acetamide]
antiviral activity for the PR8 strain (NA activity as read-out for viral protein synthesis/replication): antiviral activity for the PR8 strain
selective activity against PR8 strain in first screen of docking hits: selective activity against PR8 strain

O=[N+]([O-])c1ccc(C23CC4CC(CC(O)(C4)C2)C3)cc1 [compound 19, 3-(4-nitrophenyl)adamantan-1-ol]
antiviral activity for the PR8 strain (NA activity as read-out for viral protein synthesis/replication): antiviral activity for the PR8 strain
selective activity against PR8 strain in first screen of docking hits: selective activity against PR8 strain
